# Patent US7772190B2, “Didepsipeptide-based endoparasiticides, new didepsipeptides and process for preparing the same” (Bayer Animal Health GmbH, priority 1995, dated 2010)
# Key:
# Haemonchus contortus = assay: In vivo nematode test Haemonchus contortus/sheep; details: experimentally infected sheep; orally and/or intravenously as pure active compound; complete cessation of oviposition (worm eggs in faeces) after treatment
# Method: Haemonchus contortus/Sheep
# Sheep experimentally infected with Haemonchus contortus were treated after expiry of the prepatency time of the parasite. The active compounds were administered orally and/or intravenously as pure active compound.
# (§1) The degree of effectiveness is determined by quantitatively counting the worm eggs excreted with the faeces before and after treatment.
# (§2) Complete cessation of oviposition after treatment means that the worms have been expelled or are so damaged that they no longer produce eggs (effective dose).
# Active compounds tested and effective doses can be seen from the following tables.
# [1] = test system: Trichostrongylus colubriformis; assay: In vivo nematode test Trichostrongylus colubriformis/sheep; details: experimentally infected sheep; orally and/or intravenously as pure active compound; complete cessation of oviposition (worm eggs in faeces) after treatment
# Method: Trichostrongylus colubriformis/Sheep
# Sheep experimentally infected with Trichostrongylus colubriformis were treated after expiry of the prepatency time of the parasite. The active compounds were administered orally and/or intravenously as pure active compound.
# as §1, §2
# Active compounds tested and effective doses can be seen from the following table.
Structure (SMILES),Effective dose (Haemonchus contortus) [mg/kg],Effective dose [1] [mg/kg]
"COC(=O)C(C)OC(=O)C(C)N(C)C(=O)N(C)C(=O)N(C)C [Example 2, Methyl N-methyl-N-trimethylallophanoyl-L-alanyl-D-lactate]",5,5
"COC(=O)C1CCCCN1C(=O)C(C)OC(=O)C(C)N(C)C(=O)N(C)C(=O)N(C)C [Example 8, N-methyl-N-trimethylallophanoyl-L-alanyl-D-lactyl-L-homoproline Methyl Ester]",5,–
